In brackets after ≈: the same amount, converted by molar mass. Entries after “also recorded” stand apart in the source; their conditions may differ. Read-outs that look alike come from different tables or passages of the source. Where a SMILES comes first, the peptide text is derived from it. [ ]: non-standard residue; d: D form. Sar = CNCC(=O)O
Experiments:
[1] = tested on: New Zealand white rabbit cornea; assay: In vitro transport across rabbit cornea (Ussing chamber); assay type: in vitro ADME
Experimental: (§1) In vitro transport of […], and GFX-LYS were carried out across the New Zealand white rabbit cornea and sclera-choroid-[…]). Rabbit eyes were obtained within 24 hr of harvesting from Pel-Freez Biologicals (Rogers, Ark.) and shipped overnight in Hank's balanced salt solution on wet ice. Eyes were used immediately upon arrival. Eyes were washed with assay buffer and cleaned from the muscle and unwanted tissues. […] The small part of the sclera left with cornea helps in mounting the cornea on Ussing chambers. For isolation of the SCRPE, anterior and posterior parts were separated by a circumferential cut at the limbus. […] After separation of the retina, the eye cup was flattened with small cuts around the globe. […] A circulating water bath was used to maintain the temperature at 37° C. during the transport study. The pH of the assay buffer was maintained at 7.4 using 95% air-5% CO2 aeration which also helps in stirring of bathing solutions. Samples were collected (200 μL) from the receiver side every 30 minute for 3 hr and the lost volume was replaced with fresh assay buffer pre-equilibrated at 37° C. GFX levels were analyzed using an LC-MS/MS assay. […] GFX concentrations in the transport study and ocular tissue samples were analyzed using a validated LC-MS/MS method. […] Chromatographic separation of GFX and the internal standard moxifloxacin was performed on Obelisc C18 column (2.1×10 mm, 3 μm). Elution of analytes was performed using linear gradient elution with mobile phase consisting of 5 mM ammonium formate (pH 3.5) and acetonitrile (pH 3.5) with a flow rate of 300 μl/min and total run time of 6 min.

[2] = tested on: New Zealand white rabbit sclera-choroid-RPE (SCRPE); assay: In vitro transport across rabbit sclera-choroid-RPE (Ussing chamber); assay type: in vitro ADME; conditions: for cumulative % transport / permeability compared with GFX (in words): rabbit SCRPE
Experimental: as §1

conjunctiva = assay: In vitro transport of GFX prodrugs across conjunctiva; assay type: in vitro ADME, Rabbit
calf cornea = assay: In vitro transport of substrate cassette across normoxic and hypoxic calf cornea
Description: (§2) Animals used in this study were those that were sacrificed as part of other experiments approved by the Institutional Animal Care Committee of the Colorado State University (Fort Collins) and University of Colorado Anschutz Medical campus. Hypoxic and normoxic calf eyes were obtained from the Department of Physiology, School of Veterinary Medicine, Colorado State University (Fort Collins, Colo.). Briefly, 1 day old male Holstein calves (n=4) were kept in hypobaric hypoxic chambers (PB=445 mm Hg) for 2 weeks. For control experiment, age matched calves (n=4) were kept at ambient altitude (PB=650 mm Hg) and normoxia for two weeks. Hypoxic and normoxic rat eyes were obtained from the Department of Medicine, University of Colorado Anschutz Medical campus (Aurora, Colo.). Sprague Dawley rats (n=4) were maintained in hypobaric hypoxic chambers (PB=380 mm Hg) for 6 weeks and age matched controls were kept at ambient pressure and normoxia.
(§3) In vitro transport studies across hypoxic and control calf cornea and sclera-choroid-RPE (SCRPE) were carried using cassette dosing approach. A cassette of drug transporter substrates, Gly-Sar (PEPT), valacylovir (ATB^0+), MPP^+ (OCT), and phenylacetic acid (MCT) at a concentration of 100 μM each in assay buffer was prepared. Briefly, the calf eyes were harvested immediately after euthanasia and transferred to the laboratory on ice. Upon arrival in the lab, the eyes were washed with assay buffer and cleaned from muscle and unwanted tissues. Anterior and posterior parts were separated by circumferential cut at the limbus. Vitreous was removed and the neural retina was separated from the choroid-RPE by filling the eye cup with assay buffer. The retina afloat in assay buffer was isolated and the eye cup was divided into two pieces (˜1.5×1.5 cm) of sclera-choroid-RPE. Isolated tissues were mounted on modified Ussing chambers (Navicyte, Sparks, Nev.) such that the episcleral side of SCRPE or epithelial side of cornea was facing the donor chamber and retinal side or endothelial side of the cornea was facing the receiver chamber. The chambers were filled with 1.5 ml of assay buffer at 37° C. with (donor side) or without (receiver side) the cocktail of drug transporter substrates. For the study of effect of transporter inhibitors, cocktail mixture (500 μM) of transporter inhibitors was added on both donor and acceptor sides.
(§4) During the transport study, the bathing fluids were maintained at 37° C. using circulating warm water. The pH of the fluids was maintained at pH 7.4 using 95% air-5% CO2 aeration. Samples were collected (200 μL) from receiver side every hour for 6 hours and the removed volume was replaced with fresh assay buffer pre-equilibrated to 37° C. Drug levels were analyzed using a LC-MS/MS assay. Permeation data were corrected for dilution of the receiver concentrations with sample volume replenishment.
(§5) Analyte concentrations in transport study samples were measured using LC-MS/MS method after 5-fold dilution with acetonitrile to reduce the salt concentrations. A cassette analysis method was developed for simultaneous analysis of Gly-Sar, valacylovir, and MPP Phenyl acetic acid was analyzed separately with a negative ionization method and a normal phase separation method. An API-3000 triple quadrupole mass spectrometry (Applied Biosystems, Foster City, Calif., USA) coupled with a PerkinElmer series-200 liquid chromatography (Perkin Elmer, Waltham, Mass., USA) system was used for analysis. Gly-Sar, valacylovir and MPP were separated on Supelco C-5 column (2.1×10 mm, 3 μm) using water containing 0.1% formic acid (A) and acetonitrile:methanol (50:50 v/v) containing 0.1% formic acid (B) as mobile phase. A linear gradient elution at a flow rate of 0.3 ml/min with a total run time of 9 min was employed. Phenyl acetic acid was separated in normal phase separation mode on Obelisc-N silica column (2.1×10 mm, 3 μM) using 5 mM ammonium formate at pH 3.5 (A) and acetonitrile (B) as mobile phase.

[3] = tested on: calf sclera-choroid-RPE (SCRPE); assay: In vitro transport of substrate cassette across normoxic and hypoxic calf SCRPE
Description: as §2, §3, §4, §5

[4] = tested on: human sclera-choroid-RPE (SCRPE); assay: In vitro transport of transporter substrate cassette across human sclera-choroid-RPE
Experimental: In vitro transport studies across human cornea and sclera-choroid-RPE (SCRPE) were carried out according to previously published method using the cassette dosing approach. Briefly, cassette of drug transporter substrate including Gly-Sar (PEPT), L-tryptophan (ATB^0+), MPP^+ (OCT), and phenyl acetic acid (MCT) at concentration of 100 μM in assay buffer was prepared. Briefly, the human eyes were washed with assay buffer and cleaned from muscle and conjunctiva tissues, and anterior and posterior parts were separated by giving circumferential cut behind the limbus. Small sclera part was left with cornea, which helps in mounting of cornea on Ussing chambers. Neural retina was separated from the choroid-RPE by filling the eye cup with assay buffer, and floating retina was collected. After separation of retina, eye cup was divided into two rectangular pieces (˜1.5×1.5 cm) of sclera-choroid-RPE. Isolated tissues were mounted on modified Ussing chambers (Navicyte, Sparks, Nev.) such that the episcleral side of SCRPE or epithelial side of cornea was facing the donor chamber and retinal side or endothelial side of cornea is facing the receiver chamber. To study the effect of directionality on transport, one set of Ussing chambers mounted so that sclera side facing the donor side and another set was mounted so that choroid-RPE facing the donor side. The effect of directionality of transport across cornea was not evaluated. The chambers were filled with 1.5 ml of assay buffer with (donor side) or without (receiver side) the cocktail of drug transporter substrates. For study of effect of transporter inhibitors, cocktail mixture (500 μM) of transporter inhibitor was added on both donor and acceptor side.
During the transport study, the bathing fluids were maintained at 37° C. using a circulating warm water and pH 7.4 using 95% air-5% CO2 aeration. Samples were collected (200 μL) form receiver side every hour for 6 hr and the lost volume was compensated with fresh assay buffer pre-equilibrated at 37° C. The drug levels were analyzed using a LC-MS/MS assay. Permeation data were corrected for dilution of the receiver solution with sample volume replenishment.
Analytes concentrations in transport study samples were analyzed using LC-MS/MS method after 5-fold dilution with acetonitrile to reduce the salt concentrations. Cassette analysis method was developed for simultaneous analysis of Gly-Sar, L-tryptophan and MPP^+. Phenyl acetic acid was analyzed separately in negative ionization method and normal phase separation method. An API-3000 triple quadrupole mass spectrometry (Applied Biosystems, Foster City, Calif., USA) coupled with a PerkinElmer series-200 liquid chromatography (Perkin Elmer, Walthm, Mass., USA) system was used for analysis. Gly-Sar, L-tryptophan and MPP^+ were separated on Supelco C-5 column (2.1×10 mm, 3 μm) using water containing 0.1% formic acid (A) and acetonitrile:methanol (50:50 v/v) containing 0.1% formic acid (B) as mobile phase and a linear gradient elution at a flow rate of 0.3 ml/min with total run time of 9 min. Phenyl acetic acid was separated in normal phase separation mode using Obelisc-N silica column (2.1×10 mm, 3 μM) using 5 mM ammonium formate, pH 3.5 (A) and acetonitrile (B) as mobile phase in linear gradient mode at flow rate of 0.3 ml with total run time of 6 min. Gly-Sar, L-tryptophan, and MPP^+ were analyzed in positive ionization mode with following multiple reaction monitoring (MRM) transitions: 147→90 (Gly-Sar); 205→188 (L-tryptophan); 170→128 (MPP^+). Phenyl acetic acid was analyzed in negative ionization mode with following multiple reaction monitoring (MRM) transitions: 135→91 (Phenyl acetic acid).

| SMILES | solubility (physchem; water) [µg/mL] | solubility (physchem; water for injection) [µg/mL] | other results |
| --- | --- | --- | --- |
| Cc1ccc(-c2cc(C(F)(F)F)nn2-c2ccc(S(=O)(=O)NC(=O)C(N)CCCNC(=N)N)cc2)cc1 (stereo not shown) [CXB-ARG] | 35 (≈ 65.1 µM) | 35 (≈ 65.1 µM) |  |
| Cc1ccc(-c2cc(C(F)(F)F)nn2-c2ccc(S(=O)(=O)NC(=O)C(N)CC(C)C)cc2)cc1 (stereo not shown) [CXB-LEU] |  | 16 (≈ 32.4 µM) |  |
| Cc1ccc(-c2cc(C(F)(F)F)nn2-c2ccc(S(=O)(=O)NC(=O)C(N)CCCCN)cc2)cc1 (stereo not shown) [CXB-LYS, 2,6-diamino-N-(4-(5-p-tolyl-3-(trifluoromethyl)-1H-pyrazol-1-yl)phenylsulfonyl)hexanamide] | 50 (≈ 98.1 µM) | 50 (≈ 98.1 µM) |  |
| Cc1ccc(-c2cc(C(F)(F)F)nn2-c2ccc(S(=O)(=O)NC(=O)CCCC(=O)O)cc2)cc1 [CXB-MCT, 5-oxo-5-(4-(5-(p-tolyl)-3-(trifluoromethyl)-1H-pyrazol-1-yl)phenylsulfonamido)pentanoic acid] |  | 620 (≈ 1250 µM) |  |
| Cc1ccc(-c2cc(C(F)(F)F)nn2-c2ccc(S(=O)(=O)NC(=O)CCCN(C)C)cc2)cc1 [CXB-OCT, 4-(dimethylamino)-N-((4-(5-(p-tolyl)-3-(trifluoromethyl)-1H-pyrazol-1-yl)phenyl)sulfonyl)butanamide] |  | 3220 (≈ 6510 µM) |  |
| COc1c(N2CCN(C(=O)C(N)CC(C)C)C(C)C2)c(F)cc2c(=O)c(C(=O)O)cn(C3CC3)c12 (stereo not shown) [GFX-LEU, 7-(4-(2-amino-4-methylpentanoyl)-3-methylpiperazin-1-yl)-1-cyclopropyl-6-fluoro-8-methoxy-4-oxo-1,4-dihydroquinoline-3-carboxylic acid] |  | 2160 (≈ 4420 µM) |  |
| COc1c(N2CCN(C(=O)C(N)CCCCN)C(C)C2)c(F)cc2c(=O)c(C(=O)O)cn(C3CC3)c12 (stereo not shown) [GFX-LYS, 1-cyclopropyl-7-(4-(2,6-diaminohexanoyl)-3-methylpiperazin-1-yl)-6-fluoro-8-methoxy-4-oxo-1,4-dihydroquinoline-3-carboxylic acid] | 48000 (≈ 95300 µM) | 48000 (≈ 95300 µM) | cumulative % transport / permeability compared with GFX (in words) [1]: not significantly different from GFX; cumulative % transport / permeability compared with GFX (in words) [2]: not significantly different from GFX |
| COc1c(N2CCNC(C)C2)c(F)cc2c(=O)c(C(=O)NCCCC(=O)O)cn(C3CC3)c12 (stereo not shown) [GFX-MCT, 4-(1-cyclopropyl-6-fluoro-8-methoxy-7-(3-methylpiperazin-1-yl)-4-oxo-1,4-dihydroquinoline-3-carboxamido)butanoic acid] |  | 3010 (≈ 6540 µM) | cumulative % transport / permeability compared with GFX (in words) [1]: significantly (p<0.01) higher than GFX; transport in presence of nicotinic acid (competitive inhibitor of MCT) ([2]; SCRPE): not across SCRPE; cumulative % transport / permeability compared with GFX (in words) [2]: significantly (p<0.01) higher than GFX; cumulative % transport compared with GFX (in words) (conjunctiva): significantly (p<0.01) higher than GFX; transport in presence of nicotinic acid (competitive inhibitor of MCT) (conjunctiva): significantly inhibited; also recorded: only inhibited by nicotinic acid across conjunctiva |
| CN(CC(=O)O)C(=O)CN [Gly-Sar] (H-Gly-[Sar]-OH) |  |  | apparent permeability (Papp) across hypoxic vs normoxic tissue (in words) (calf cornea): significantly higher across normoxic cornea than hypoxic cornea; apparent permeability (Papp) across hypoxic vs normoxic tissue (in words) [3]: significantly higher across normoxic SCRPE than hypoxic SCRPE; sclera to retina transport higher than retina to sclera transport [4]: 1.6-2.0 fold |
| N[C@@H](Cc1c[nH]c2ccccc12)C(=O)O [L-tryptophan] |  |  | sclera to retina transport higher than retina to sclera transport ([4]; human, 6 h, 100 μM, pH 7.4): 1.6-2.0 fold |

Reference: patent US20130190324A1, “TOPICAL OCULAR DRUG DELIVERY” (The Regents of the University of Colorado, a body corporate, priority 2011, published 2013)
